Test results taken from paper PMC11375794, “Discovery of new Hsp90–Cdc37 protein–protein interaction inhibitors: in silico screening and optimization of anticancer activity” (RSC Advances, 2024).

What was measured:
leukemia cell line THP-1 = test: MTS cell viability (antiproliferative) assay in THP-1; type: cell-based; conditions: Homo sapiens, THP-1, 72 hours, mean ± SD
Procedure: (§1) Hormone-positive breast cancer cell line MCF-7 (ATCC-HTB-22; ATCC) was grown in Dulbecco's Modified Eagle's Medium (DMEM), while Ewing sarcoma cell line SK-N-MC (a kind gift from Beat Schäfer) and THP-1 (ATCC-TIB-202; ATCC) cells were grown in Roswell Park Memorial Institute (RPMI) 1640. The medium was supplemented with 10% heat-inactivated fetal bovine serum (Gibco, Thermo Fisher Scientific, Waltham, MA, USA), 100 U per mL penicillin, 100 μg per mL streptomycin, and 2 mM L-glutamine (all from Sigma-Aldrich, St. Louis, MO, USA). All cell lines were incubated at 37 °C in a 5% CO2 atmosphere.
(§2) The antiproliferative activity of the compounds was evaluated against MCF-7 (ATCC-HTB-22; ATCC), SK-N-MC (a kind gift from Beat Schäfer) and THP-1 (ATCC-TIB-202; ATCC) cancer cell lines using the MTS assay (Promega, Madison, WI, USA). Cells were seeded in 96-well plates at a density of 2 × 10^4 cells per mL in 100 μL of growth medium for THP-1 and were treated with compounds and controls directly, while 3 × 10^3 cells per mL for MCF-7 and SK-N-MC were seeded in 100 μL of growth medium and allowed to adhere overnight following the treatment. In all cases the cells were treated with respective newly prepared compounds, positive controls (17-DMAG for MCF-7 and SK-N-MC; PU-H71 for THP-1) and a vehicle control (0.5% DMSO). The incubation time after treatment was 72 hours, then CellTiter96® Aqueous One Solution Reagent (Promega, Madison, WI, USA) was added to each well. Following a 3 hours incubation, absorbance was measured at 492 nm using BioTek's Synergy™ 4 Hybrid Microplate Reader (Winooski, VT, USA). The measurements were performed in two biological repetitions and each time the experiment was performed in a triplicate. The IC50 values, representing the concentration of inhibitor required for half-maximal inhibition, are the average of three independent experiments and were calculated using GraphPad Prism 9.5.0 software (San Diego, CA, USA).

full-length Hsp90β = target: T1, full-length Hsp90β (Homo sapiens, UniProt P08238); test: Microscale thermophoresis (MST) binding to Hsp90β
T1 construct: For the protein expression of full-length Hsp90β, we received plasmids as a kind gift; made in house; host or cells: Escherichia coli strain Rosetta
T1 sequence (P08238 whole entry): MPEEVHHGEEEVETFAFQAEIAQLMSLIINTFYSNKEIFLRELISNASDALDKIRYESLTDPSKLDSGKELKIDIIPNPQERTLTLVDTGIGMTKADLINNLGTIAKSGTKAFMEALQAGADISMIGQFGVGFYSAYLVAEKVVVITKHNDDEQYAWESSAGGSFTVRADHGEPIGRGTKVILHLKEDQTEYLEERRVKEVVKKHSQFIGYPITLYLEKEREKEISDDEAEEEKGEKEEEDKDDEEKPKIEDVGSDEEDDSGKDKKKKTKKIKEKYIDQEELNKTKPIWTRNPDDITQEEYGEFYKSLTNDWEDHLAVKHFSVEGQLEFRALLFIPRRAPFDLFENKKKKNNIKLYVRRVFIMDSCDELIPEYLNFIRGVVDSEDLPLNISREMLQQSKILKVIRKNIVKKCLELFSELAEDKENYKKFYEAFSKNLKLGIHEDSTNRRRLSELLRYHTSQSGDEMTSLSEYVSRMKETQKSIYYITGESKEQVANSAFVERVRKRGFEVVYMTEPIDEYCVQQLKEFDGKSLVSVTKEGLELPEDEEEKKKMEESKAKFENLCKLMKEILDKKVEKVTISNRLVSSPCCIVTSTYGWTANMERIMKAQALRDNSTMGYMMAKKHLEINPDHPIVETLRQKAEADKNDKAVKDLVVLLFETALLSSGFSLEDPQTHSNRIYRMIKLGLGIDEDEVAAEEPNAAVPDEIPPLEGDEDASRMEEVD
Procedure: For the protein expression of full-length Hsp90β, we received plasmids as a kind gift from Dr Asta Zubriené at the Institute of Biotechnology, Vilnius University, Lithuania. Hsp90β, tagged with N-terminal 6×His-tag, was expressed in Escherichia coli strain Rosetta. The cells were cultured in LB media supplemented with kanamycin (50 μg mL^−1) and chloramphenicol (34 μg mL^−1) at 37 °C, and protein expression was initiated with 0.5 mM isopropyl β-D-1-thiogalactopyranoside (IPTG) when the OD600 reached 0.8. Following induction, the cells were incubated for 16 hours at 18 °C before being harvested by centrifugation. The cells were resuspended in a lysis buffer containing 40 mM potassium phosphate pH 8.0, 400 mM KCl, 10 mM imidazole, and protease inhibitors (Sigma), and then lysed by sonication. After centrifugation, the proteins were initially purified using a Ni^2+-affinity HisTrap column (GE Healthcare). Impurities were washed away with lysis buffer containing 20–40 mM imidazole, and Hsp90β was subsequently eluted with lysis buffer containing 300 mM imidazole. The purification process continued with size exclusion chromatography (SEC) using a Superdex-200 (16/600) column (GE Healthcare) and a running buffer of 50 mM Tris pH 7.5 at room temperature, 300 mM KCl. The purity of the fractions was confirmed by SDS-PAGE, and they were then concentrated. For the NMR experiments, Hsp90β was dialyzed against NMR buffer (50 mM potassium phosphate pD 7.5, 100 mM KCl, 2 mM DTT (98%, D10) in D2O) and subsequently frozen in liquid nitrogen.
(§3) The full-length Hsp90β was labeled using the Monolith His-Tag Labeling Kit RED-tris-NTA following the manufacturer's instructions (NanoTemper Technologies GmbH, Munich, Germany). The proteins were first diluted to a concentration of 8 nM in assay buffer (50 mM Tris–HCl, pH 7.4, containing 150 mM NaCl, 5% ethanol, and 10 mM MgCl2). To determine the Kd values, the proteins were mixed with the test compounds in a 1 : 1 ratio as stated in the manufacturers protocol. The final concentration of Hsp90β was 4 nM, with compounds added in the following ranges: 1000 μM to 5.86 μM for 8c; 312.5 μM to 0.15 μM for 13g and 125 μM to 3.91 μM for 1. Two independent Kd determinations were performed for compounds 8c and 13g. […] Next, Cdc37 (AR09008PUN, OriGene Technologies, Inc., Rockville, MD, USA) was acquired for the purpose of PPI inhibition evaluation between full-length Hsp90β and Cdc37. […] In all experiments the compounds were incubated with the proteins for 15 minutes in the dark at room temperature. The mixtures were then loaded into Monolith NT.115 Premium Capillaries (NanoTemper Technologies GmbH, Munich, Germany). Thermophoresis was induced at 1475 ± 15 nm and measured using a Monolith NT.115 pico instrument (NanoTemper Technologies GmbH, Munich, Germany). Measurements were conducted at ambient temperature (24–25 °C), with excitation power set to 20% and MST power set to 40%, and a laser on time of 5 seconds. To calculate the Kd values, the average fluorescence responses for each concentration were plotted against the logarithm of compound concentrate on using GraphPad Prism software (GraphPad Software, Inc., La Jolla, CA).

[1] = system: Ewing sarcoma cell line SK-N-MC; test: MTS cell viability (antiproliferative) assay in SK-N-MC; type: cell-based; conditions: 72 hours, mean ± SD; for IC50: Homo sapiens, SK-N-MC
Procedure: as §1, §2

[2] = Solubility as observed in MST; type: physicochemical; conditions: MST assay buffer
Procedure: as §3, with “The mixtures were then loaded into Monolith NT.115 Premium Capillaries (NanoTemper Technologies GmbH, Munich, Germany).” left out, “Measurements were conducted at ambient temperature (24–25 °C), with excitation power set to 20% and MST power set to 40%, and a laser on time of 5 seconds.” left out

[3] = system: MCF-7 breast cancer cell line; test: MTS cell viability (antiproliferative) assay in MCF-7; type: cell-based; conditions: MTS assay, 72 hours, mean ± SD; for IC50: Homo sapiens, MCF7, 72 h
Procedure: as §1, §2

SMILES	IC50 (leukemia cell line THP-1)	IC50 [1]	IC50 [3]	also measured
Cc1nc(Nc2nc(C(=O)N(C)CCOc3ccccc3)cs2)cc(C2CCCN(CC#N)C2)n1 (centres unmarked) [Compound 1]	> 50 µM	25 ± 0.4 µM	29.5 ± 5.4 µM	concentrations at which an increase in binding could be detected (full-length Hsp90β): above 39 μM; highest concentration without compound-induced protein aggregation (full-length Hsp90β): 125 µM; binding to Hsp90β (qualitative) (full-length Hsp90β; 125 μM to 3.91 μM): confirmed qualitatively; solubility [2]: poor
CN(CCOc1ccccc1)C(=O)c1csc(Nc2cc(N3CCCC3)ncn2)n1 [Compound 6c, N-Methyl-N-(2-phenoxyethyl)-2-((6-(pyrrolidin-1-yl)pyrimidin-4-yl)amino)thiazole-4-carboxamide]	> 50 µM	26.2 ± 0.4 µM	28.1 ± 1.4 µM	
COc1ccc(OCCN(C)C(=O)c2csc(Nc3cc(C4CCCN(CC#N)C4)nc(C)n3)n2)cc1 (centres unmarked) [Compound 2]			47.4 ± 0.9 µM	
CN(CCc1ccccc1)C(=O)c1csc(Nc2cc(N3CCNCC3)ncn2)n1 [Compound 8b, N-Methyl-N-phenethyl-2-((6-(piperazin-1-yl)pyrimidin-4-yl)amino)thiazole-4-carboxamide]			27.3 ± 2 µM	
CN(CCc1ccccc1)C(=O)c1cccc(Nc2cc(N3CCCC3)ncn2)c1 [Compound 11d, N-Methyl-N-phenethyl-3-((6-(pyrrolidin-1-yl)pyrimidin-4-yl)amino)benzamide]			29.1 ± 5 µM	
O=C(NCCOc1ccccc1)c1cccc(Nc2cc(N3CCCC3)ncn2)c1 [Compound 11b, N-(2-Phenoxyethyl)-3-((6-(pyrrolidin-1-yl)pyrimidin-4-yl)amino)benzamide]	> 50 µM	26.9 ± 1 µM	14.6 ± 4.5 µM	
CN(Cc1ccccc1)C(=O)c1csc(Nc2cc(N3CCCC3)ncn2)n1 [Compound 6a, N-Benzyl-N-methyl-2-((6-(pyrrolidin-1-yl)pyrimidin-4-yl)amino)thiazole-4-carboxamide]			20.8 ± 2.2 µM	
O=C(NCCOc1ccccc1)c1ccc(Nc2cc(N3CCCC3)ncn2)cc1 [Compound 11g, N-(2-Phenoxyethyl)-4-((6-(pyrrolidin-1-yl)pyrimidin-4-yl)amino)benzamide]	> 50 µM	> 50 µM	> 50 µM	SK-N-MC IC50 [1]: inactive

Second part, led by results:

IC50 (leukemia cell line THP-1)	IC50 [1]	IC50 [3]	SMILES	also measured
		> 50 µM	CN(CCc1ccccc1)C(=O)c1cccc(Nc2cc(N3CCC(N)CC3)ncn2)c1 [Compound 18, 3-((6-(4-Aminopiperidin-1-yl)pyrimidin-4-yl)amino)-N-methyl-N-phenethylbenzamide]	MCF-7 IC50 [3]: not active
		> 50 µM	O=C(NCCOc1ccccc1)c1ccc(Nc2cc(N3CCC(O)CC3)ncn2)cc1 [Compound 21, 4-((6-(4-Hydroxypiperidin-1-yl)pyrimidin-4-yl)amino)-N-(2-phenoxyethyl)benzamide]	
		17.9 ± 0.5 µM	O=C(NCCc1ccccc1)c1ccc(Nc2cc(N3CCNCC3)ncn2)cc1 [Compound 13f, N-Phenethyl-4-((6-(piperazin-1-yl)pyrimidin-4-yl)amino)benzamide]	
> 50 µM	22.2 ± 0.2 µM	22.5 ± 3.3 µM	O=C(NCCOc1ccccc1)c1cccc(Nc2cc(N3CCNCC3)ncn2)c1 [Compound 13b, N-(2-Phenoxyethyl)-3-((6-(piperazin-1-yl)pyrimidin-4-yl)amino)benzamide]	
		14.5 ± 4.7 µM	CN(Cc1ccccc1)C(=O)c1ccc(Nc2cc(N3CCNCC3)ncn2)cc1 [Compound 13h, N-Benzyl-N-methyl-4-((6-(piperazin-1-yl)pyrimidin-4-yl)amino)benzamide]	
		31.9 ± 2.1 µM	CN(Cc1ccccc1)C(=O)c1cccc(Nc2cc(N3CCNCC3)ncn2)c1 [Compound 13c, N-Benzyl-N-methyl-3-((6-(piperazin-1-yl)pyrimidin-4-yl)amino)benzamide]	
		> 50 µM	CN(CCc1ccccc1)C(=O)c1cccc(Nc2cc(N3CCCCC3)ncn2)c1 [Compound 14, N-Methyl-N-phenethyl-3-((6-(piperidin-1-yl)pyrimidin-4-yl)amino)benzamide]	
		20.8 ± 2.7 µM	CN(CCOc1ccccc1)C(=O)c1ccc(Nc2cc(N3CCNCC3)ncn2)cc1 [Compound 13j, N-Methyl-N-(2-phenoxyethyl)-4-((6-(piperazin-1-yl)pyrimidin-4-yl)amino)benzamide]	
